# According to patent US8551984B2, “Aminopyrimidines as SYK inhibitors” (Merck Sharp & Dohme Corp., priority 2009, dated 2013):
# Like-named read-outs stand apart in the source and are kept apart here.
# Columns and labels:
# rhSYK = rhSYK (Homo sapiens, UniProt P43405); conditions: read-out: rhSYK Activity
# [1] = target: recombinant human SYK (GST-hSYK fusion protein) (Homo sapiens, UniProt P43405); assay: biochemical
# Source text: Homogeneous Time-Resolved Fluorescence (HTRF) Assay for the Recombinant Human SYK Enzyme:
# [2] = class symbol, where two forms are listed, one symbol per form
# [3] = rhSYK Activity (IC50), recombinant human GST-SYK 5 pM, ATP 25 μM, biotinylated substrate peptide 250 nM, HTRF, 10-dose titration
smiles,measurement,setting,value
Cc1cc(Nc2nccc(C(F)(F)F)n2)cc(-c2cnc([C@]3(O)CC[C@H](CO)CC3)s2)c1 [Example 4C-6],IC50,rhSYK; [2],< 0.1 µM
Cc1cc(Nc2nccc(C(F)(F)F)n2)cc(-c2cnc(C3(O)CCC(C(N)=O)C(C)(C)C3)s2)c1 (stereo not shown) [Example 119-132],IC50,"rhSYK; Table 119, two symbols in a cell = one per listed form",< 0.1 µM
Cc1cc(Nc2nccc(C(F)(F)F)n2)cc(-c2cnc(C3(O)CCC(CN)CC3)s2)c1 (stereo not shown) [Example 4C-4],IC50,rhSYK; [2],< 0.1 µM
"CCOC(=O)C1CCC(Oc2ccnc(Nc3cc(C)cc(-c4cnc(C5(O)CCC5)s4)c3)n2)CC1 (stereo not shown) [Example 94A-16, ethyl 4-{[2-({3-[2-(1-hydroxycyclobutyl)-1,3-thiazol-5-yl]-5-methylphenyl}-amino)pyrimidin-4-yl]oxy}cyclohexanecarboxylate]",IC50,[1]; [3],0.1 to 1 µM
Cc1cc(Nc2nccc(C(F)(F)F)n2)cc(-c2cnc(C3(O)CCCN(C(=O)C4CCCC(=O)N4)CC3)s2)c1 (stereo not shown) [Example 54D-92],IC50,"[1]; rhSYK Activity, Table 54D",< 0.1 µM
Cc1cc(Nc2ncc(C(=O)O)cn2)cc(-c2cnc(C3(O)CCC3)s2)c1 [Example 68-1],IC50,"[1]; rhSYK Activity, table after Example 68",0.1 to 1 µM
Cc1cc(Nc2nccc(C(F)(F)F)n2)cc(-c2cnc(C3(O)CC(C(=O)O)C3)s2)c1 (stereo not shown) [Example 33B-1],IC50,"[1]; rhSYK Activity, Table 33B",< 0.1 µM
FC(F)(F)c1ccnc(Nc2cccc(-c3cnc(C4(F)CCC4)s3)c2)n1 [26-3],IC50,"[1]; rhSYK Activity, Table 26",0.1 to 1 µM
Cc1cc(Nc2nccc(C(F)(F)F)n2)cc(-c2cnc(C3(O)CCN(C(=O)NC(C)C)CC3)s2)c1 [Example 54A-13],IC50,"[1]; RHSYK Activity, Table 54A",< 0.1 µM
Cc1cc(Nc2nccc(C(F)(F)F)n2)cc(-c2cnc(C3(O)CCN(C(=O)c4ccccc4)CC3)s2)c1 [Example 54A-34],IC50,"[1]; RHSYK Activity, Table 54A",< 0.1 µM
Cc1cc(Nc2nccc(C(F)(F)F)n2)cc(-c2cnc(CNCc3n[nH]c(=O)[nH]3)s2)c1 [Example 88A-3],IC50,[1]; [3],< 0.1 µM
Cc1cc(Nc2nccc(C(F)(F)F)n2)cc(-c2cnc(CNC3(C)CCCCC3CO)s2)c1 (stereo not shown) [Example 88A-55],IC50,[1]; [3],< 0.1 µM
Cc1cc(Nc2nccc(OCC3CCOC3)n2)cc(-c2cnc(C3(O)CCC3)s2)c1 (stereo not shown) [Example 94A-15],IC50,[1]; [3],< 0.1 µM
"Cc1cc(Nc2nccc(C(F)(F)F)n2)cc(-c2cnc(C3(O)CCCN(C(=O)C(C)(CO)CO)CC3)s2)c1 (single isomer, unassigned) [Example 54D-79]",IC50,"[1]; rhSYK Activity, Table 54D",< 0.1 µM
Cc1cc(Nc2nccc(C(F)(F)F)n2)cc(-c2cnc([C@]3(O)CC[C@@H](NC(=O)c4ccccc4)CC3)s2)c1 [Example 54E-9],IC50,"[1]; rhSYK Activity, Table 54E",< 0.1 µM
Cc1cc(Nc2nccc(C)n2)cc(-c2cnc(C3(O)CCN(C(N)=O)C3)s2)c1 (stereo not shown) [54B-13],IC50,"[1]; rhSYK Activity, Table 54B",< 0.1 µM
Cc1cc(Nc2nccc(C(F)(F)F)n2)cc(-c2cnc(C3(O)CCN(C(=O)CC4CCOCC4)CC3)s2)c1 [Example 54A-53],IC50,"[1]; RHSYK Activity, Table 54A",< 0.1 µM
Cc1cc(Nc2nccc(C(F)(F)F)n2)cc(-c2cnc(CNc3cn(C(C)C)nn3)s2)c1 [Example 88A-10],IC50,[1]; [3],< 0.1 µM
Cc1cc(Nc2nccc(C(F)(F)F)n2)cc(-c2cnc(-c3ccco3)s2)c1 [Example 114-7],IC50,[1]; [3],< 0.1 µM
Cc1cc(Nc2nccc(C(F)(F)F)n2)cc(-c2cnc(C(=O)N3CCCC3)s2)c1 [Example 87B-1],IC50,[1]; [3],0.1 to 1 µM
Cc1cc(Nc2nccc(OC3CCCNC3)n2)cc(-c2cnc(C3(O)CCC3)s2)c1 (stereo not shown) [Example 94A-26],IC50,[1]; [3],< 0.1 µM
CCOC(=O)C1CC(C)C(O)(c2ncc(-c3cc(C)cc(Nc4nccc(C(F)(F)F)n4)c3)s2)C(C)C1 (stereo not shown) [Example 113B-31],IC50,"[1]; rhSYK Activity, Table 113B",< 0.1 µM
"CC(=O)Nc1cc(Nc2nccc(OC3CCN(C(=O)OC(C)(C)C)CC3)n2)cc(-c2cnc(C3(O)CCC3)s2)c1 [109(1), tert-butyl 4-[2-({3-(acetylamino)-5-[2-(1-hydroxycyclobutyl)-1,3-thiazol-5-yl]phenylamino)pyrimidin-4-yl]oxy}piperidine-1-carboxylate]",IC50,[1]; [3],0.1 to 1 µM
Cc1cc(Nc2nccc(C(F)(F)F)n2)cc(-c2cnc(C3(O)CCN(C(=O)CC(N)=O)CC3)s2)c1 [Example 54A-25],IC50,"[1]; RHSYK Activity, Table 54A",< 0.1 µM
"Cc1cc(Nc2nccc(OC3CCC(C(=O)O)CC3)n2)cc(-c2cnc(C3(O)CCC3)s2)c1 (stereo not shown) [Example 97, 4-{[2-({3-[2-(1-hydroxycyclobutyl)-1,3-thiazol-5-yl]-5-methylphenyl}amino)pyrimidin-4-yl]oxy}cyclohexanecarboxylic acid]",IC50,[1]; [3],< 0.1 µM
Cc1cc(Nc2nccc(C(F)C3CC3)n2)cc(-c2cnc(C3(O)CCC(C(=O)O)C(C)(C)C3)s2)c1 (stereo not shown) [Example 100A-20],IC50,[1]; [3],< 0.1 µM
Cc1cc(Nc2nccc(C(F)(F)F)n2)cc(-c2cnc(C(C)(O)C(F)(F)F)s2)c1 (stereo not shown) [Example 15-4],IC50,"[1]; rhSYK Activity, Table 15",< 0.1 µM
Cc1cc(Nc2nccc(C(F)(F)F)n2)cc(-c2cnc(C3(O)CCCN(C(=O)Cc4c[nH]cn4)CC3)s2)c1 (stereo not shown) [Example 54D-47],IC50,"[1]; rhSYK Activity, Table 54D",< 0.1 µM
COC(=O)C1CCC(O)(c2ncc(-c3cc(C)cc(Nc4ncc(Cl)c(C)n4)c3)s2)CC1(C)C (stereo not shown) [116A-34],IC50,"[1]; rhSYK Activity, Table 116A",0.1 to 1 µM
"Cc1cc(Nc2nccc(C(F)(F)F)n2)cc(-c2cnc(C3(O)CCCN(C(=O)CO)CC3)s2)c1 (single isomer, unassigned) [Example 54D-122]",IC50,"[1]; rhSYK Activity, Table 54D",< 0.1 µM
Cc1cc(Nc2nccc(C(F)(F)F)n2)cc(-c2cnc(C3(O)CCN(C(=O)c4ccc(O)c(F)c4)CC3)s2)c1 [Example 54A-57],IC50,"[1]; RHSYK Activity, Table 54A",< 0.1 µM
CCOC(=O)C1CC(C)C(O)(c2ncc(-c3cc(C)cc(Nc4nccc(C)n4)c3)s2)CC1C (stereo not shown) [Example 113B-10],IC50,"[1]; rhSYK Activity, Table 113B",< 0.1 µM
COC(=O)CN1CCC(O)(c2ncc(-c3cc(C)cc(Nc4nccc(C(F)(F)F)n4)c3)s2)C1 (stereo not shown) [54B-24],IC50,"[1]; rhSYK Activity, Table 54B",< 0.1 µM
Cc1cc(Nc2nccc(C(F)(F)F)n2)cc(-c2cnc(C(=O)N(C)Cc3nccn3C)s2)c1 [Example 87A-21],IC50,[1]; [3],< 0.1 µM
Cc1cc(Nc2nccc(C(F)(F)F)n2)cc(-c2cnc(C3CCNC(=O)C3)s2)c1 (stereo not shown) [Example 36B-1],IC50,"[1]; rhSYK Activity, Table 36B",< 0.1 µM
Cc1cc(Nc2nccc(SCCCCO)n2)cc(-c2cnc(C3(O)CCC3)s2)c1 [Example 108A-46],IC50,"[1]; rhSYK Activity, Table 108A",< 0.1 µM
Cc1cc(Nc2nccc(C(F)(F)F)n2)cc(-c2cnc(CNCC3(CO)COC3)s2)c1 [Example 88A-46],IC50,[1]; [3],< 0.1 µM
Cc1cc(Nc2nccc(C(F)(F)F)n2)cc(-c2cnc([C@]3(O)CC[C@@H](NC(=O)Cn4ccnn4)CC3)s2)c1 [Example 54E-12],IC50,"[1]; rhSYK Activity, Table 54E",< 0.1 µM
Cc1cc(Nc2nccc(C(F)(F)F)n2)cc(-c2cnc(C3(O)CCN(S(N)(=O)=O)C3)s2)c1 (stereo not shown) [54B-6],IC50,"[1]; rhSYK Activity, Table 54B",< 0.1 µM
Cc1cc(Nc2nccc(C(F)(F)F)n2)cc(-c2cnc(C3(O)CCC(NC(=O)c4cc(O)ccc4F)CC3)s2)c1 (stereo not shown) [Example 54E-35],IC50,"[1]; rhSYK Activity, Table 54E",< 0.1 µM
Cc1cc(Nc2nccc(C(F)(F)F)n2)cc(-c2cnc(C(=O)N(C)CCO)s2)c1 [Example 87A-6],IC50,[1]; [3],< 0.1 µM
"Cc1cc(Nc2nccc(C(O)CO)n2)cc(-c2cnc(C3(O)CCC3)s2)c1 (stereo not shown) [Example 105, 1-[2-({3-[2-(1-hydroxycyclobutyl)-1,3-thiazol-5-yl]-5-methylphenyl}amino)pyrimidin-4-yl]ethane-1,2-diol]",IC50,[1]; [3],< 0.1 µM
C=C(F)CNC(=O)c1ncc(-c2cc(C)cc(Nc3nccc(C(F)(F)F)n3)c2)s1 [Example 87A-19],IC50,[1]; [3],< 0.1 µM
Cc1cc(Nc2nccc(C(F)(F)F)n2)cc(-c2cnc(C3(O)CCCN(C(=O)C4CCCOC4)CC3)s2)c1 (stereo not shown) [Example 54D-68],IC50,"[1]; rhSYK Activity, Table 54D",< 0.1 µM
COC(=O)C1CCC(O)(c2ncc(-c3cc(C)cc(Nc4nccc(C)n4)c3)s2)CC1(C)C (stereo not shown) [Example 33A-69],IC50,"[1]; rhSYK Activity, Table 33-A",< 0.1 µM
Cc1cc(Nc2nccc(C(F)(F)F)n2)cc(-c2cnc([C@]3(O)CC[C@@H](NC(=O)c4c[nH]nn4)CC3)s2)c1 [Example 54E-6],IC50,"[1]; rhSYK Activity, Table 54E",< 0.1 µM
Cc1cc(Nc2nccc(C(F)(F)F)n2)cc(-c2cnc(C3(O)CCN(C(=O)c4ncc[nH]4)CC3)s2)c1 [Example 54A-28],IC50,"[1]; RHSYK Activity, Table 54A",< 0.1 µM
"Cc1cc(Nc2ncc(F)cn2)cc(-c2cnc(C3(O)CCC(C(=O)O)C(C)(C)C3)s2)c1 (single isomer, unassigned) [Example 33A-47]",IC50,"[1]; rhSYK Activity, Table 33-A",< 0.1 µM
COC(=O)C1CCC(O)(c2ncc(-c3cc(Nc4nccc(C(F)(F)F)n4)cc(C(F)F)c3)s2)CC1(C)C (stereo not shown) [Example 33A-55],IC50,"[1]; rhSYK Activity, Table 33-A",0.1 to 1 µM
Cc1cc(Nc2nccc(C(F)(F)F)n2)cc(-c2cnc(CN3CCP(=O)(C(C)C)CC3)s2)c1 [Example 88B-17],IC50,[1]; [3],< 0.1 µM
CC(C)(c1ncc(-c2cccc(Nc3nccc(C(F)(F)F)n3)c2)s1)S(C)(=O)=O [74A-2],IC50,"[1]; rhSYK Activity, Table 74A",< 0.1 µM
Cc1cc(Nc2nccc(OCc3c[nH]cn3)n2)cc(-c2cnc(C3(O)CCC3)s2)c1 [Example 108A-2],IC50,"[1]; rhSYK Activity, Table 108A",< 0.1 µM
Cc1cc(Nc2nccc(C(F)(F)F)n2)cc(-c2cnc(C(C)(O)CC(C)(C)C(=O)O)s2)c1 (stereo not shown) [Example 33D-9],IC50,"[1]; rhSYK Activity, Table 33D",< 0.1 µM
Cc1cc(Nc2nccc(C(F)(F)F)n2)cc(-c2cnc(C(N[S+]([O-])C(C)(C)C)(C3CC3)C3CC3)s2)c1 (stereo not shown) [61A-2],IC50,"[1]; rhSYK Activity, Table 61A",0.1 to 1 µM
Cc1cc(Nc2nccc(C(C)F)n2)cc(-c2cnc(C3(O)CCC(C(=O)OC(C)(C)C)CC3)s2)c1 (stereo not shown) [116A-10],IC50,"[1]; rhSYK Activity, Table 116A",< 0.1 µM
"CO/C=C\c1ncc(-c2cc(C)cc(Nc3nccc(C(F)(F)F)n3)c2)s1 [153(B), N-(3-{2-[(Z)-2-Methoxyethenyl]-1,3-thiazol-5-yl}-5-methylphenyl)-4-(trifluoromethyl)pyrimidin-2-amine]",IC50,[1]; [3],< 0.1 µM
"Cc1cc(Nc2nccc(C(F)(F)F)n2)cc(-c2cnc(C3(O)CCCN(C(=O)c4nc[nH]n4)CC3)s2)c1 (single isomer, unassigned) [Example 54D-124]",IC50,"[1]; rhSYK Activity, Table 54D",< 0.1 µM
"Cc1cc(Nc2nccc([C@H](C)F)n2)cc(-c2cnc([C@@]3(O)CC[C@H](C(=O)O)C(C)(C)C3)s2)c1 [(1S,4R)-4-{5-[3-({4-[(1S)-1-fluoroethyl]pyrimidin-2-yl}amino)-5-methylphenyl]-1,3-thiazol-2-yl}-4-hydroxy-2,2-dimethylcyclohexanecarboxylic acid]",IC50,"[1]; Syk IC50, HTRF, recombinant human GST-SYK",< 0.0005 µM
